In PubChem BioAssay (NCI):
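1) Cells in 96-well plates. 2) Compound, 48 h, 5 concentrations. 3) Linear interpolation between surrounding doses. 4) Unreached endpoint = highest concentration. TGI is the concentration that stops growth completely.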 Where a SMILES comes first, the peptide text is derived from it. The star is where a group is joined. Cbz = O=C(OCc1ccccc1)*

The compounds below were run on 786-0 renal (assay: NCI anticancer screen, dose series, 48 h).

Going from `COC(=O)C1=C(OC)[C@H]2C#C/C=C\C#C[C@@H]3Nc4c(cc(O)c5c4C(=O)c4ccccc4C5=O)[C@]24O[C@@]34[C@H]1C` to `CCOC(=O)C(NC(=O)c1ccccc1)(N1CCN(c2cc3c(cc2F)c(=O)c(C(=O)O)cn3C2CC2)CC1)C(F)(F)F` (centres undefined), the TGI rises from under 0.01 µM to over 100 µM.

`CCOC(=O)CCC(NC(=O)OCc1ccccc1)C(=O)NC(CCC(=O)OCC)C(=O)OCC` (centres undefined) (Cbz-Glu(OEt)-Glu(OEt)-OEt; configuration not given here) and `COc1ccc(C2(CC(C)C)CCN(S(=O)(=O)c3ccc(C)cc3)C2)cc1OC` (centres undefined) cannot be ordered by TGI: over 100 µM for the first, over 100 µM for the second.

First: O=c1cc(NNc2cccc(Cl)c2)[nH]c(=O)[nH]1
Second: CC1(C)OP(=O)(O)C=C1Sc1ccc([N+](=O)[O-])cc1[N+](=O)[O-]
The TGI of the first is lower: 31 µM for the first, over 100 µM for the second.

What follows are compounds tested on A498 renal (assay: NCI anticancer screen, dose series, 48 h).

Compared with `c1ccc2c(c1)Nc1cccc3c1c-2nc1ccccc13`, `COC(=O)C1=C(OC)[C@H]2C#C/C=C\C#C[C@@H]3Nc4c(cc(O)c5c4C(=O)c4ccccc4C5=O)[C@]24O[C@@]34[C@H]1C` is lower in TGI: over 100 µM for the first, under 0.01 µM for the second.

Going from `CCOC(=O)CCC(NC(=O)OCc1ccccc1)C(=O)NC(CCC(=O)OCC)C(=O)OCC` (centres undefined) (Cbz-Glu(OEt)-Glu(OEt)-OEt; configuration not given here) to `CCOC(=O)C(NC(=O)c1ccccc1)(N1CCN(c2cc3c(cc2F)c(=O)c(C(=O)O)cn3C2CC2)CC1)C(F)(F)F` (centres undefined), the TGI falls from over 100 µM to 72 µM.

`O=c1cc(NNc2cccc(Cl)c2)[nH]c(=O)[nH]1` and `CC1(C)OP(=O)(O)C=C1Sc1ccc([N+](=O)[O-])cc1[N+](=O)[O-]` cannot be ordered by TGI: over 100 µM for the first, over 100 µM for the second.

`CCOC(=O)c1sc2nc(SC)nc(Nc3ccc4c(c3)OCCO4)c2c1N` showed a TGI of 27.4 µM.

What follows are compounds tested on A549 NSCLC (assay: NCI anticancer screen, dose series, 48 h).

First: COC(=O)C1=C(OC)[C@H]2C#C/C=C\C#C[C@@H]3Nc4c(cc(O)c5c4C(=O)c4ccccc4C5=O)[C@]24O[C@@]34[C@H]1C
Second: CCOC(=O)C(NC(=O)c1ccccc1)(N1CCN(c2cc3c(cc2F)c(=O)c(C(=O)O)cn3C2CC2)CC1)C(F)(F)F (centres undefined)
The TGI of the first is lower: 0.111 µM for the first, over 100 µM for the second.

`CCOC(=O)CCC(NC(=O)OCc1ccccc1)C(=O)NC(CCC(=O)OCC)C(=O)OCC` (centres undefined) (Cbz-Glu(OEt)-Glu(OEt)-OEt; configuration not given here) and `CCOC(=O)c1sc2nc(SC)nc(Nc3ccc4c(c3)OCCO4)c2c1N` cannot be ordered by TGI: over 100 µM for the first, over 100 µM for the second.

`COc1ccc(C2(CC(C)C)CCN(S(=O)(=O)c3ccc(C)cc3)C2)cc1OC` (centres undefined) and `CC1(C)OP(=O)(O)C=C1Sc1ccc([N+](=O)[O-])cc1[N+](=O)[O-]` cannot be ordered by TGI: over 100 µM for the first, over 100 µM for the second.

Work on `O=c1cc(NNc2cccc(Cl)c2)[nH]c(=O)[nH]1` yielded a TGI of over 100 µM.

Each compound was assayed on ACHN renal (assay: NCI anticancer screen, dose series, 48 h).

Going from `c1ccc2c(c1)Nc1cccc3c1c-2nc1ccccc13` to `COC(=O)C1=C(OC)[C@H]2C#C/C=C\C#C[C@@H]3Nc4c(cc(O)c5c4C(=O)c4ccccc4C5=O)[C@]24O[C@@]34[C@H]1C`, the TGI falls from 2.01 µM to under 0.01 µM.

Going from `CCOC(=O)CCC(NC(=O)OCc1ccccc1)C(=O)NC(CCC(=O)OCC)C(=O)OCC` (centres undefined) (Cbz-Glu(OEt)-Glu(OEt)-OEt; configuration not given here) to `CCOC(=O)C(NC(=O)c1ccccc1)(N1CCN(c2cc3c(cc2F)c(=O)c(C(=O)O)cn3C2CC2)CC1)C(F)(F)F` (centres undefined), the TGI falls from over 100 µM to 58.9 µM.

`COc1ccc(C2(CC(C)C)CCN(S(=O)(=O)c3ccc(C)cc3)C2)cc1OC` (centres undefined) and `CC1(C)OP(=O)(O)C=C1Sc1ccc([N+](=O)[O-])cc1[N+](=O)[O-]` cannot be ordered by TGI: over 100 µM for the first, over 100 µM for the second.

First: O=c1cc(NNc2cccc(Cl)c2)[nH]c(=O)[nH]1
Second: CCOC(=O)c1sc2nc(SC)nc(Nc3ccc4c(c3)OCCO4)c2c1N
The TGI of the first is higher: over 100 µM for the first, 19.8 µM for the second.

Each compound was assayed on BT-549 breast (assay: NCI anticancer screen, dose series, 48 h).

Going from `c1ccc2c(c1)Nc1cccc3c1c-2nc1ccccc13` to `COC(=O)C1=C(OC)[C@H]2C#C/C=C\C#C[C@@H]3Nc4c(cc(O)c5c4C(=O)c4ccccc4C5=O)[C@]24O[C@@]34[C@H]1C`, the TGI falls from over 100 µM to under 0.0339 µM.

First: CCOC(=O)C(NC(=O)c1ccccc1)(N1CCN(c2cc3c(cc2F)c(=O)c(C(=O)O)cn3C2CC2)CC1)C(F)(F)F (centres undefined)
Second: CCOC(=O)c1sc2nc(SC)nc(Nc3ccc4c(c3)OCCO4)c2c1N
The TGI of the first is 1.6-fold higher: 50.9 µM for the first, 32 µM for the second.

`COc1ccc(C2(CC(C)C)CCN(S(=O)(=O)c3ccc(C)cc3)C2)cc1OC` (centres undefined) and `O=c1cc(NNc2cccc(Cl)c2)[nH]c(=O)[nH]1` cannot be ordered by TGI: over 100 µM for the first, over 100 µM for the second.

Each compound was assayed on CAKI-1 renal (assay: NCI anticancer screen, dose series, 48 h).

Compared with `COC(=O)C1=C(OC)[C@H]2C#C/C=C\C#C[C@@H]3Nc4c(cc(O)c5c4C(=O)c4ccccc4C5=O)[C@]24O[C@@]34[C@H]1C`, `CCOC(=O)C(NC(=O)c1ccccc1)(N1CCN(c2cc3c(cc2F)c(=O)c(C(=O)O)cn3C2CC2)CC1)C(F)(F)F` (centres undefined) is higher in TGI: under 0.01 µM for the first, 50.2 µM for the second.

First: CCOC(=O)CCC(NC(=O)OCc1ccccc1)C(=O)NC(CCC(=O)OCC)C(=O)OCC (centres undefined) (Cbz-Glu(OEt)-Glu(OEt)-OEt; configuration not given here)
Second: CCOC(=O)c1sc2nc(SC)nc(Nc3ccc4c(c3)OCCO4)c2c1N
The TGI of the first is higher: over 100 µM for the first, 49.2 µM for the second.

`COc1ccc(C2(CC(C)C)CCN(S(=O)(=O)c3ccc(C)cc3)C2)cc1OC` (centres undefined) and `CC1(C)OP(=O)(O)C=C1Sc1ccc([N+](=O)[O-])cc1[N+](=O)[O-]` cannot be ordered by TGI: over 100 µM for the first, over 100 µM for the second.

Work on `O=c1cc(NNc2cccc(Cl)c2)[nH]c(=O)[nH]1` yielded a TGI of 36.9 µM.

The compounds below were run on CCRF-CEM leukemia (assay: NCI anticancer screen, dose series, 48 h).

Going from `c1ccc2c(c1)Nc1cccc3c1c-2nc1ccccc13` to `COC(=O)C1=C(OC)[C@H]2C#C/C=C\C#C[C@@H]3Nc4c(cc(O)c5c4C(=O)c4ccccc4C5=O)[C@]24O[C@@]34[C@H]1C`, the TGI falls from 4.81 µM to under 0.01 µM.

Compared with `CCOC(=O)CCC(NC(=O)OCc1ccccc1)C(=O)NC(CCC(=O)OCC)C(=O)OCC` (centres undefined) (Cbz-Glu(OEt)-Glu(OEt)-OEt; configuration not given here), `CCOC(=O)C(NC(=O)c1ccccc1)(N1CCN(c2cc3c(cc2F)c(=O)c(C(=O)O)cn3C2CC2)CC1)C(F)(F)F` (centres undefined) is lower in TGI: over 100 µM for the first, 14.6 µM for the second.

Going from `COc1ccc(C2(CC(C)C)CCN(S(=O)(=O)c3ccc(C)cc3)C2)cc1OC` (centres undefined) to `CCOC(=O)c1sc2nc(SC)nc(Nc3ccc4c(c3)OCCO4)c2c1N`, the TGI rises from 64.3 µM to over 100 µM.

`O=c1cc(NNc2cccc(Cl)c2)[nH]c(=O)[nH]1` was tested, and the TGI was 68.8 µM.

These compounds were tested on COLO 205 colon (assay: NCI anticancer screen, dose series, 48 h).

Work on `COC(=O)C1=C(OC)[C@H]2C#C/C=C\C#C[C@@H]3Nc4c(cc(O)c5c4C(=O)c4ccccc4C5=O)[C@]24O[C@@]34[C@H]1C` yielded a TGI of 0.014 µM.
